According to the supplement of paper PMC10307832:

Legend:
Assay in all cases: relative viability (nuclei count vs DMSO), 5 days (fraction); higher = more cells survive
Serdemetan = compound: c1ccc2c(CCNc3ccc(Nc4ccncc4)cc3)c[nH]c2c1 [Serdemetan]
Method in brief: (§1)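 Lung cancer cell lines in 1536-well plates were exposed by pinning to five library-drug doses (not always all listed) √10 apart, following an overnight hold at 37 °C. MetaXpress counted Hoechst-stained nuclei from 4× images taken after 5 days without medium change. Viability is the median ratio of treated-well to vehicle-well nuclei across plates. Plates required control CV below 25% and at least one doubling.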

Selisistat = compound: C1CC(C2=C(C1)C3=C(N2)C=CC(=C3)Cl)C(=O)N [Selisistat]
Method in brief: as §1

Serdemetan + Pemetrexed = compound: c1ccc2c(CCNc3ccc(Nc4ccncc4)cc3)c[nH]c2c1 [Serdemetan] + Nc1nc2[nH]cc(CCc3ccc(C(=O)N[C@@H](CCC(=O)O)C(=O)O)cc3)c2c(=O)[nH]1 [Pemetrexed] (partner 0.2 µM)
Method in brief: (§2)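 Relative viability is defined as nuclei in treated wells over nuclei in vehicle wells. Duplicate plates were run and medians reported. Lung cancer cell lines in 1536-well plates were dosed by pin tool one day after seeding, with one drug or with a fixed anchor-drug dose plus five library-drug doses (not always all listed) in √10 steps, and nuclei were counted after 5 days.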

Selisistat + OSI-027 = compound: C1CC(C2=C(C1)C3=C(N2)C=CC(=C3)Cl)C(=O)N [Selisistat] + COc1cccc2cc(-c3nc([C@H]4CC[C@H](C(=O)O)CC4)n4ncnc(N)c34)[nH]c12 [OSI-027] (partner 0.5 µM)
Method in brief: as §2

| Cell Line | relative viability (Serdemetan; 0.04 µM) | relative viability (Serdemetan; 0.1265 µM) | relative viability (Serdemetan; 0.4 µM) | relative viability (Serdemetan; 1.265 µM) | relative viability (Serdemetan; 4 µM) | relative viability (Selisistat; 0.4 µM) | relative viability (Selisistat; 1.265 µM) | relative viability (Selisistat; 4 µM) | relative viability (Selisistat; 12.65 µM) | relative viability (Selisistat; 40 µM) | relative viability (Serdemetan + Pemetrexed; first compound 0.04 µM) | relative viability (Serdemetan + Pemetrexed; first compound 0.1265 µM) | relative viability (Serdemetan + Pemetrexed; first compound 0.4 µM) | relative viability (Serdemetan + Pemetrexed; first compound 1.265 µM) | relative viability (Serdemetan + Pemetrexed; first compound 4 µM) | relative viability (Selisistat + OSI-027; first compound 0.4 µM) | relative viability (Selisistat + OSI-027; first compound 1.265 µM) | relative viability (Selisistat + OSI-027; first compound 4 µM) | relative viability (Selisistat + OSI-027; first compound 12.65 µM) | relative viability (Selisistat + OSI-027; first compound 40 µM) |
| --- | --- | --- | --- | --- | --- | --- | --- | --- | --- | --- | --- | --- | --- | --- | --- | --- | --- | --- | --- | --- |
| 201T | 0.983 | 0.987 | 0.937 | 0.919 | 0.919 | 1.02 | 0.996 | 0.875 | 1.01 | 0.996 | 0.306 | 0.287 | 0.29 | 0.332 | 0.353 | 0.797 | 0.705 | 0.555 | 0.587 | 0.739 |
| A549 | 0.907 | 0.938 | 0.932 | 0.778 | 0.59 | 1.05 | 0.901 | 0.952 | 0.898 | 0.982 | – | – | – | – | – | – | – | – | – | – |
| A-427 | 0.954 | 1 | 1.03 | 0.762 | 0.825 | 1.03 | 0.984 | 0.845 | 0.971 | 0.944 | 0.958 | 0.927 | 1.04 | 0.698 | 0.854 | 0.455 | 0.432 | 0.301 | 0.421 | 0.57 |
| ABC-1 | 0.948 | 0.923 | 0.994 | 0.603 | 0.56 | 0.897 | 0.869 | 0.647 | 0.772 | 0.819 | – | – | – | – | – | 0.499 | 0.447 | 0.331 | 0.442 | 0.436 |
| BEN | 0.996 | 0.924 | 1.02 | 0.686 | 0.882 | 1.01 | 0.967 | 0.738 | 0.878 | 0.9 | 0.717 | 0.614 | 0.849 | 0.955 | 0.634 | 0.263 | 0.251 | 0.282 | 0.282 | 0.274 |
| CAL-12T | 0.967 | 1.05 | 1.01 | 0.932 | 0.927 | 0.964 | 0.987 | 0.747 | 0.881 | 1 | 1.17 | 1.19 | 0.951 | 1.19 | 1.05 | 0.726 | 0.535 | 0.472 | 0.53 | 0.694 |
| COR-L23 | 0.951 | 0.988 | 1.06 | 0.823 | 0.874 | 1.05 | 1.06 | 1.08 | 0.908 | 1.01 | 0.206 | 0.208 | 0.213 | 0.192 | 0.186 | 0.866 | 0.803 | 0.799 | 0.653 | 0.653 |
| COR-L 105 | 0.971 | 0.875 | 0.734 | 0.815 | 0.89 | 0.904 | 0.895 | 0.675 | 0.855 | 0.877 | 1.06 | 0.991 | 0.948 | 1.14 | 0.967 | 0.755 | 0.624 | – | 0.712 | 0.584 |
| Calu-6 | 1 | 1.02 | 1.02 | 0.875 | 0.677 | 1.03 | 0.965 | 0.99 | 0.976 | 1 | – | – | – | – | – | – | – | – | – | – |
| ChaGo-K-1 | 0.964 | 0.95 | 0.873 | 0.624 | 0.529 | 1.02 | 0.942 | 0.8 | 0.866 | 0.97 | 0.277 | 0.261 | 0.372 | 0.257 | 0.254 | 0.588 | 0.461 | 0.492 | 0.535 | 0.617 |
| EBC-1 | 0.903 | 0.931 | 0.943 | 0.857 | 0.722 | 0.994 | 0.963 | 1.01 | 0.956 | 0.954 | – | – | – | – | – | – | – | – | – | – |
| EKVX | 0.987 | 0.987 | 0.647 | 0.627 | 0.891 | 1.05 | 0.993 | 0.788 | 0.902 | 0.92 | 0.335 | 0.401 | – | – | 0.376 | 0.756 | 0.754 | 0.689 | 0.69 | 0.697 |
| EMC-BAC-2 | 0.962 | 1.02 | 0.971 | 0.849 | 0.967 | 0.978 | 0.996 | 0.595 | 0.688 | 0.561 | 0.457 | 0.446 | 0.437 | 0.346 | 0.4 | 0.391 | 0.358 | 0.462 | 0.362 | 0.342 |
| EPLC-272H | 1.17 | 1.09 | 0.897 | 0.833 | 0.912 | 0.966 | 1.03 | – | 0.931 | 1.04 | 0.316 | 0.367 | 0.342 | 0.269 | 0.374 | 0.274 | 0.237 | – | 0.289 | 0.289 |
| H3255 | 0.968 | 0.944 | 0.987 | 0.787 | 0.896 | 0.984 | 0.943 | 0.978 | 0.948 | 1.03 | 0.594 | 0.462 | 0.541 | 0.539 | 0.572 | 0.621 | 0.553 | 0.741 | 0.579 | 0.648 |
| HARA | 0.938 | 1.01 | 0.937 | 0.757 | 0.877 | 0.955 | 0.938 | 0.749 | 0.964 | 1.07 | 0.202 | 0.254 | 0.226 | 0.196 | 0.257 | 0.632 | 0.405 | 0.382 | 0.508 | 0.477 |
| HCC-15 | 1.03 | 0.999 | 0.94 | 0.807 | 0.712 | 1.08 | 1.04 | – | 1.02 | 1.21 | 0.216 | 0.195 | 0.215 | 0.226 | 0.213 | 0.81 | 0.676 | – | 0.622 | 0.618 |
| HCC-44 | 0.935 | 0.982 | 0.944 | 0.854 | 0.962 | 1.01 | 0.738 | 1.08 | 0.982 | 1.06 | 0.62 | 0.621 | 0.577 | 0.574 | 0.644 | 0.591 | – | – | 0.457 | 0.586 |
